Counter-ions that a name gives are not always drawn.
Key:
Type in all cases: physicochemical
[1] = Solubility in dichloromethane (saturated solution); conditions: weight percentage of dye to solvent in a saturated solution
Excerpt: This Example illustrates the high solubility in halogenated organic solvents which can be achieved by dyes of the present invention, as compared with similar dyes which bear 2-phenyl or -substituted phenyl groups.

[2] = Storage stability of thermal imaging medium containing the dye; conditions: imaging medium (dye, leuco dye LD3, polyurethane Estane 5715 binder) stored at 60°C for 4 days
Procedure: A coating fluid was prepared by combining the infra-red dye of Formula IR4 above (prepared in Example 12 above, 2.6 mg) with a leuco dye of Formula LD3 above (110 mg) and a polymeric binder (polyurethane Estane 5715, supplied by B.F. Goodrich, 0.73 mL of a 15% solution in acetone). The fluid was diluted with acetone (0.157 mL), then coated onto a 4 mil (101 »m) transparent poly(ethylene terephthalate) base using a #12 coating rod. The film so formed was laminated at 180°F […] and 60 psi (0.4 MPa) to a second sheet of 4 mil (101 »m) poly(ethylene terephthalate) which had been coated with Joncryl 138 to a thickness of approximately 2 »m.

[3] = Photochemical stability of dye in polymer films
Procedure: This Example illustrates the photochemical stability of a dye of the present invention in a polymer matrix.
20 mg of Dye B prepared as described in Example 5 above and 100 mg of a test polymer (polyvinylbutyral or polyacrylate) were dissolved in dichloromethane, and the resultant solution was coated onto PET transparent base using a #4 coating rod. The maximum absorbance of the resultant film was measured before and after exposure of the coated side of the base to irradiation with a fluorescent lamp (560 ft. candles) for 24 or 67 hours. The results are shown in Table 2 below (with the absorbance after irradiation in parentheses).

[4] = Absorption and thermal stability of dye in polymer films; set-up: λmax: unit not given here; conditions: for Width: full width of infra-red absorption peak at half maximum
Procedure: This Example illustrates the high absorptions which can be achieved by a dye of the present invention when dispersed in a polymer, and the thermal stability of such dispersed polymer.
The polymers tested in this Example were polystyrene/acrylonitrile, polyvinylbutyral and polyvinylformal polymers. 10.0 mg of the dye (hereinafter referred to as "Dye B") prepared as described in Example 5 above was dissolved in 2.0 mL of a 2.5% w/v solution of each polymer in dichloromethane, and the resultant solution was coated onto a transparent 4 mil polyvinyl chloride base using a No. 10 coating rod. The resultant film was oven dried at 80°C for 10 minutes. After the film had cooled, the wavelength of maximum infra-red absorption (λmax), the absorbance at λmax (Amax), and the full width of the infra-red absorption peak at half maximum were measured. The film samples were then stored in the dark for 15 days at 80°C, and the same absorption parameters were remeasured to give the data shown in Table 1, in which initial values are shown, with values after heating in parentheses.

[5] = Polyvinylbutyral film, after 15 days at 80°C in the dark
[6] = Polyvinylbutyral film, initial value
[7] = Polyvinylformal film, after 15 days at 80°C in the dark
[8] = Polyvinylformal film, initial value
[9] = SAN (polystyrene/acrylonitrile) film, after 15 days at 80°C in the dark
[10] = SAN (polystyrene/acrylonitrile) film, initial value

`CCN(CC)c1ccc2c(c1)OC(c1ccc(C)cc1C)=CC2=CC1=C([O-])C(=Cc2cc(-c3ccc(C)cc3C)[o+]c3cc(N(CC)CC)ccc23)C1=O` [Control Dye z, reference compound] showed a Solubility [1] of 0.1 wt. %.

For `CCC(CC)COc1ccc2c(c1)OC(C(C)(C)C)=CC2=CC1=C([O-])C(=Cc2cc(C(C)(C)C)[o+]c3cc(N(CC)CC)ccc23)C1=O` [IR4, 4-[[3-[[7-diethylamino-2-[1,1-dimethylethyl]benz[b]-4H-pyran-4-ylidene]methyl]-2-hydroxy-4-oxo-2-cyclobuten-1-ylidene]methyl]-7-[2-ethylbut-1-oxy]-2-[1,1-dimethylethyl]benz[b]pyrylium hydroxide inner salt dye], the “loss of near infra-red absorption” value [2] was 2.4%.

In the case of `CCN(CC)c1ccc2c(c1)OC(c1ccccc1)=CC2=CC1=C([O-])C(=Cc2cc(-c3ccccc3)[o+]c3cc(N(CC)CC)ccc23)C1=O` [Control Dye y, reference compound], the Solubility [1] is reported as 0.02 wt. %.

Work on `CCN(CC)c1ccc2c(c1)OC(C(C)(C)C)=CC2=CC1=C([O-])C(=Cc2cc(C(C)(C)C)[o+]c3cc(N(CC)CC)ccc23)C1=O` [Dye B] yielded an Amax ([3]; Polyacrylate film, after 24 hours irradiation with fluorescent lamp (560 ft. candles)) of 0.78, an Amax ([3]; Polyacrylate film, before irradiation) of 0.84 and an Amax ([3]; Polyvinylbutyral film, after 67 hours irradiation with fluorescent lamp (560 ft. candles)) of 1.018. The Amax ([3]; Polyvinylbutyral film, before irradiation) was 1.225, the Amax [4, 5] was 2.16 and the λmax [4, 5] was 812. It also gave an Amax [4, 6] of 2.99, a λmax [4, 6] of 815 and an Amax [4, 7] of 2.64. For the same compound, the λmax [4, 7] was 820 (820), the Amax [4, 8] was 2.62 and the λmax [4, 8] was 820 (820). The Amax [4, 9] was 2.68, the λmax [4, 9] was 826 (826) and the Amax [4, 10] was 2.59. The λmax [4, 10] was 826 (826), the Width [4, 5] was 79 nm and the Width [4, 6] was 70 nm. For the same compound, the Width [4, 7] was 80 (80) nm, the Width [4, 8] was 80 (80) nm and the Width ([4]; SAN film, after 15 days at 80°C in the dark) was 74 (74) nm. For the same compound, the Width ([4]; SAN film, initial value) was 74 (74) nm and the Solubility [1] was 11.5 wt. %.

`CCN(CC)c1ccc2c(c1)OC(C1CCCCC1)=CC2=CC1=C([O-])C(=Cc2cc(C3CCCCC3)[o+]c3cc(N(CC)CC)ccc23)C1=O` [Dye F, 4-[[3-[2-cyclohexyl-7-diethylamino-(benz[b]-4H-pyran-4-ylidene)methyl]-2-hydroxy-4-oxo-2-cyclobuten-1-ylidene]methyl]-2-cyclohexyl-7-diethylaminobenz[b]pyrylium hydroxide inner salt dye] showed a Solubility [1] of 0.4 wt. %.

Reference: patent publication EP0511381B1, “SQUARYLIUM AND CROCONYLIUM DYES” (POLAROID CORPORATION, priority 1990, dated 1992)
